The data set is described as follows: Cytotoxicity against human MCF7 cells incubated for 48 hrs by MTT assay. The format is toxicity, cell-based.

The compound `C[C@@H]1CC[C@@]2(OC1)O[C@H]1C[C@H]3[C@@H]4CC[C@H]5C[C@@H](OC(=O)[C@@H](N)CO)CC[C@]5(C)[C@H]4CC[C@]3(C)[C@H]1[C@@H]2C` showed a 50% inhibitory concentration (IC50) at 48 h of 1500 nM.

The values are drawn from ChEMBL document CHEMBL5126502, “Promising applications of steroid сonjugates for cancer research and treatment” (Eur J Med Chem, 2021).
